# Data taken from patent US20080299123A1, “TREATMENT OF CHEMOTHERAPY- OR RADIOTHERAPY-RESISTANT TUMORS” (Deutsches Krebsforschungszentrum Stiftung des offentlichen …, priority 2006, published 2008).
# Key:
# PT45-P1res cells = test: Caspase-3/-7 assay in PT45-P1res cells; format: cell-based, human; conditions: inhibitor 10 μmol/L, 20 μg/mL etoposide 24 hours
# Procedure: (a) PT45-P1 res cells were transfected with control siRNA or with two L1CAM specific siRNAs. Western blotting for the detection of full-length L1CAM or of HSP90 as a control for equal protein load was performed (upper panel). In parallel, siRNA transfected PT45-P1res cells were treated with 20 μg/mL etoposide or not for 24 hours and caspase-3/-7 activity was determined. (b) siRNA transfected PT45-P1res cells were subjected to L1CAM immunostaining (L1-11A antibody) or staining with an isotype matched control antibody followed by flow cytometry. One representative histogram is shown. (c) siRNA transfected PT45-P1res cells were analysed by western blotting for the detection of full-length L1 CAM, αv-integrin or HSP90 (d) After overnight siRNA transfection, cells were either left untreated or were either treated with 20 μg/mL etoposide or with 5 μg/mL gemcitabine for 24 hours, followed by either AnnexinV/PI staining and flow cytometry (AnnexinV positive cells over basal) or by caspase-3/-7 assay (n-fold induced caspase-3/-7 activity of basal). (e) PT45-P1res cells were either left untreated (w/o) or were treated with 20 μg/mL etoposide in the absence (w/o) or presence of either 5 μg/mL anti L1CAM antibody (Clone L1-11A) or 5 μg/mL isotype matched control antibody. After 24 hours, cells were analysed by AnnexinV/PI staining or by caspase-3/-7 assay. Means±SD from three independent experiments are shown. * indicates p<0.05.
# As described elsewhere (Sebens Müerköster et al., 2006), apoptosis was determined by staining with annexinV/propidium iodide (Biocarta, Hamburg, Germany) and subsequent fluorescence flow cytometry (GalaxyArgon Plus; DAKO Cytomation, Hamburg, Germany) using the FLOMAX software, and by the detection of caspase-3/-7 activity using a homogeneous luminescent assay (Promega, Mannheim, Germany). All samples were measured in duplicates.
# For L1CAM transfection, PT45-P1 cells were seeded into 6 well plates (2×10^5 cells/well), were grown overnight, followed by transfection with 5 μL/well DIMRIE reagent (Invitrogen) and 0.6 μg/well of the following plasmids: pcDNA3.1 (mock) or pcDNA3.1-L1CAM (L1CAM). Upon transfection for 18 hours, 1 mL medium containing 20% FCS was added and cells were left untreated or were treated as indicated for further 24 hours. For knock down of L1CAM, PT45-P1res cells were seeded into 12 well plates (1×10^5 cells/well), were grown overnight followed by transfection with 12 μL/well RNAiFect reagent (Invitrogen) and 2 μg/well of either Stealth negative control siRNA (Invitrogen) or Stealth L1CAM siRNA (Invitrogen). After overnight transfection, cells were either left untreated or treated as indicated for further 24 hours.
# L1CAM = L1CAM expression in PT45-P1res cells (western blotting, flow cytometry, real-time PCR); format: cell-based, human; conditions: inhibitor 10 μmol/L, 24 hours
# Procedure: After washing in PBS, cells grown in 6-well culture plates were detached with 5 mmol/L EDTA in PBS and then washed with PBS once again. Blocking was conducted in 1% BSA/PBS for 60 min. at room temperature followed by incubation with the anti L1CAM antibody L1-11A or an isotype matched control antibody (1:1000, in 1% BSA/PBS) at 4° C. overnight. Then, cells were washed three times in PBS followed by incubation (60 min, 37° C.) with a goat-anti mouse antibody conjugated with Alexa flour 488 (Dianova, Hamburg, Germany) diluted 1:500 in 1% BSA/PBS. After washing in PBS, cells were resuspended in 500 μL PBS and analysed by fluorescence flow cytometry.
# Cells were seeded into 6 well and 12 well plates, respectively, and transfected or treated as indicated. Then, cells were washed once with PBS and lysed with 1 volume of 2×SDS sample buffer (128 mmol/L Tris-Base, 4.6% SDS, 10% glycerol). Samples were heated for 5 minutes at 95° C. and put on ice for 2 minutes. Protein concentrations were determined using the Dc Protein assay (BioRad). Ten μg of protein adjusted to an appropriate volume of SDS sample buffer containing 0.2 mg/mL bromphenolblue (Serva, Heidelberg, Germany) and 2.5% β-mercaptoethanol (Biomol, Hamburg, Germany) were submitted to electrophoresis on a 4-20% ProGel-Tris-glycin-gel (Anamed, Darmstadt, Germany) and immunoblotting was performed as described previously (Arlt et al, 2001). For detection of L1CAM, a monoclonal antibody (clone UJ127 from Acris Antibodies) was diluted at a concentration of 0.4 μg/mL in 5% nonfat milk powder and 0.05% Tween in TBS (blotto) and incubated overnight at 4° C. For detection of the cytoplasmic domain of L1CAM, the pcytL1 antibody (Mechtersheimer et al., 2001) was used at a concentration of 1 μg/mL in blotto and incubated overnight at 4° C. As control of equal protein load, a polyclonal rabbit antibody for HSP90 (Santa Cruz, Heidelberg, Germany) was diluted 1:2000 in blotto. The mouse anti CD51 antibody from Beckman Coulter GmbH (Krefeld, Germany) was used at a concentration of 1:500 in blotto for detection of human αv integrin. Incubation with the primary antibodies was performed overnight at 4° C. For detection of the primary antibodies, anti-mouse and anti-rabbit HRP-linked antibodies (Cell Signaling), respectively, were used at a dilution of 1:2000 in blotto-TBST at room temperature for 1 hour. After washing in TBST, blots were developed using the LumiGlo peroxidase detection kit (Cell Signaling).
# 2 μg of total RNA were reverse-transcribed into single-stranded cDNA, as described previously (Schafer et al., 1999). Two μL of cDNA and 0.2 μmol/L gene-specific primers were adjusted with RNAse-free water to a volume of 15 μL. To this mixture, 15 μL of iQ SYBR Green Supermix (BioRad) were added. Primers for the detection of L1CAM (Gavert et al., 2005) were used under the following conditions: 95° C./1 min; 95° C./1 min, 52° C./30 see, 72° C./30 see for 40 cycles; 72° C./10 min. Primers for the detection of iNOS were from Biosource (Ratingen, Germany) and used under the following PCR conditions: 95° C./5 min; 95° C./45 sec, 60° C./45 sec, 72° C./45 sec for 40 cycles; 72° C./10 min. For control, β-actin was amplified in parallel using primers from BD Biosciences Clontech. […] Data were collected during annealing steps and were further analysed by using the i-Cycler iQ Optical system software (BioRad). All samples were analysed in duplicates and data are expressed as amount of mRNA in arbitrary units.
compound,measurement,setting,value
CC(C)C[C@H](CC(=O)NO)C(=O)N[C@@H](Cc1ccc2ccccc2c1)C(=O)N[C@@H](C)C(N)=O [TAPI-0],apoptosis induction after etoposide treatment (caspase-3/-7),PT45-P1res cells,did not significantly affect apoptosis induction after etoposide treatment
same,L1CAM expression (full-length 220 kDa and 32 kD fragment),L1CAM,neither of the inhibitors changed L1 CAM expression
